Test results taken from patent US20230029496A1, “AMINO ACID ALTERNATIVE CURING SYSTEM” (THE TEXAS A&M UNIVERSITY SYSTEM, priority 2019, published 2023).
Values joined by “and” are separate entries in the source; they are usually repeats but may differ in a detail not shown here. Identical values can stand only once. Like-named read-outs stand apart in the source and are kept apart here. Marks after values point to notes of the source that are not given here.

Assays:
[1] = test system: Nitric Oxide Synthase (NOS) system; assay: Cure efficiency (NO-heme, total heme, nitrosylation) of cooked pre- and post-rigor pork semimembranosus muscle (Example 13); assay type: biochemical
Experimental: Cooked meat samples were analyzed for the degree of nitrosylation through residual nitrite from the Pearson and Tauber method from the modified Hornsey's procedure for analyzing small samples [103] from the supernatant and pellet. 2 mL or 2 g of the samples were treated with acetone to measure NO-heme concentration and for total heme concentration, 2 mL or 2 g of the samples were treated with acetone and hydrochloric acid. Both samples were measured using a spectrophotometer (2100 Series Spectrophotometer, Unico, Dayton, N.J.) and a 1 cm quartz cuvette. NO-heme concentration (ppm acid hematin) was read at 540 nm, and total heme concentration (ppm acid hematin) was determined at 640 nm to determine nitrosylation as the indication of the effectiveness of L-arginine in curing the samples. This procedure measured the conversion levels of myoglobin to nitrosohemochromagen, the cured meat color, and the amount of conversion as compared to the total pigmentation within the sample.
Curing efficiency or nitrosylation is calculated as the percentage conversion of NO-heme to total heme. Cure efficiency is the percentage of total pigment converted to nitroso pigment and indicates the degree of cured color fading. Cured meat pigment is extracted in a solution of 80% acetone and 20% water that extracts cured pigment heme. Total heme pigments are extracted using an acidified acetone solution that extracts heme from all heme proteins as first used by Hornsey. NO-heme concentration (as ppm acid hematin)=sample A540×290 determines the specific cure color pink from the rest of the heme pigmentation of the sample. Total heme concentration (ppm acid hematin)=sample A640×680 determines the total heme pigmentation of the sample. Cure efficiency (%)=(ppm of nitrosoheme […]ppm of total pigment)×100 and indicates how much of the product is cured and holds the cured pink stability once cooked.

[2] = pH after immersion, pre- and post-rigor pork semimembranosus muscle (Example 13); assay type: physicochemical
[3] = 2 mM L-arginine, cooked post rigor pellet
[4] = 2 mM L-arginine, cooked post rigor supernatant
[5] = 2 mM L-arginine, cooked pre-rigor pellet
[6] = 2 mM L-arginine, cooked pre-rigor supernatant
[7] = 4 mM L-arginine, cooked post rigor pellet
[8] = 4 mM L-arginine, cooked post rigor supernatant
[9] = 4 mM L-arginine, cooked pre-rigor pellet
[10] = 4 mM L-arginine, cooked pre-rigor supernatant
[11] = 8 mM L-arginine, cooked post rigor pellet
[12] = 8 mM L-arginine, cooked post rigor supernatant
[13] = 8 mM L-arginine, cooked pre-rigor pellet
[14] = 8 mM L-arginine, cooked pre-rigor supernatant
[15] = 16 mM L-arginine, cooked post rigor pellet
[16] = 16 mM L-arginine, cooked post rigor supernatant
[17] = 16 mM L-arginine, cooked pre-rigor pellet
[18] = 16 mM L-arginine, cooked pre-rigor supernatant
[19] = 32 mM L-arginine, cooked post rigor pellet
[20] = 32 mM L-arginine, cooked post rigor supernatant
[21] = 32 mM L-arginine, cooked pre-rigor pellet
[22] = 32 mM L-arginine, cooked pre-rigor supernatant

Experimental for eNOS system: Two (N=2) of these pork loins were cut into four sections (˜1 kg; 8 pieces total) and weighed prior to injection with the test brine solution (Table 8). Initial muscle pH was prior to injection before injection (10, 15, 20 or 25%) as well as brine pH was measured (Table 9). The test brine was manufactured for a targeted 25% injection level (Table 8) and was prepared on the day of manufacture to simulate a commercial ham cure containing water, sodium tri-polyphosphate, salt (NaCl), L-arginine, sodium erythorbate (NaE) and sugar. […] Brine percentages were calculated to simulate ingoing arginine of test tube trials (5569 ingoing arginine, 547 ppm NaE, 0.9% NaCl).
Samples were weighed before and after injection to ensure pickup percentage as close to the target weights of 10, 15, 20, and 25% pickup. Samples were vacuum packaged and held for two hours before thermal processing to simulate previous laboratory test tube trials.
After cooking and stabilization at room temperature, loin sections were sliced perpendicular to the long axis of the muscle fibers to determine if any nitrosylation (nitric oxide (NO) bound to myoglobin) occurred, resulting in the characteristic cured (pink) color. […] Based on an ingoing L-arginine brine concentration of 5545 ppm, there would be approximately 554, 830 and 1110 and 1385 ppm of ingoing L-arginine at 10, 15, 20 and 25% injection levels, respectively.

Structure (SMILES): N=C(N)NCCC[C@H](N)C(=O)O [L-arginine]
- Injected Loin pH (eNOS system; 10% injection of test brine (Table 8)): 7.15 and 7.12
- Injected Loin pH (eNOS system; 15% injection of test brine (Table 8)): 7.09 and 7.08
- Injected Loin pH (eNOS system; 20% injection of test brine (Table 8)): 7.03 and 7.14
- Injected Loin pH (eNOS system; 25% injection of test brine (Table 8)): 7.18 and 7.09
- increase of muscle pH (eNOS system; after injection of test brine with sodium tri-polyphosphate): ~2.0 pH units
- cured color formation after cooking (eNOS system; pork loin sections injected 10, 15, 20 or 25%, held two hours, cooked to 145° F.): no observable cured color formation
- Brine pH (eNOS system; test brine of Table 8: L-arginine 5545.41 ppm, with sodium tri-polyphosphate, salt, sugar, sodium erythorbate): 10.55
- NO-Heme [1, 3]: 16.10^b ppm
- Nitrosylation [1, 3]: 31.22^a %
- Total Heme [1, 3]: 62.56^a ppm
- NO-Heme [1, 4]: 23.76^a ppm
- Nitrosylation [1, 4]: 61.38^a %
- Total Heme [1, 4]: 64.43^a ppm
- NO-Heme [1, 5]: 19.02^a ppm
- Nitrosylation [1, 5]: 52.09^a %
- Total Heme [1, 5]: 61.48 ppm and 61.48^ab ppm
- NO-Heme [1, 6]: 26.02 ppm and 26.02^ab ppm
- Nitrosylation [1, 6]: 60.23^a %
- Total Heme [1, 6]: 50.43^a ppm
- NO-Heme [1, 7]: 19.72 ppm and 19.72^ab ppm
- Nitrosylation [1, 7]: 35.19^a %
- Total Heme [1, 7]: 67.72^a ppm
- NO-Heme [1, 8]: 22.81^a ppm
- Nitrosylation [1, 8]: 55.90^a %
- Total Heme [1, 8]: 73.33^a ppm
- NO-Heme [1, 9]: 18.82^a ppm
- Nitrosylation [1, 9]: 49.31^a %
- Total Heme [1, 9]: 52.07 ppm and 52.07^ab ppm
- NO-Heme [1, 10]: 28.17 ppm and 28.17^ab ppm
- Nitrosylation [1, 10]: 70.03^a %
- Total Heme [1, 10]: 40.86^a ppm
- NO-Heme [1, 11]: 18.34 ppm and 18.34^ab ppm
- Nitrosylation [1, 11]: 35.53^a %
- Total Heme [1, 11]: 63.58^a ppm
- NO-Heme [1, 12]: 25.98^a ppm
- Nitrosylation [1, 12]: 79.27^a %
- Total Heme [1, 12]: 62.90^a ppm
- NO-Heme [1, 13]: 16.38^a ppm
- Nitrosylation [1, 13]: 31.43^a %
- Total Heme [1, 13]: 80.07 ppm and 80.07^ab ppm
- NO-Heme [1, 14]: 32.98^a ppm
- Nitrosylation [1, 14]: 75.71^a %
- Total Heme [1, 14]: 45.11^a ppm
- NO-Heme [1, 15]: 18.42 ppm and 18.42^ab ppm
- Nitrosylation [1, 15]: 62.80^a %
- Total Heme [1, 15]: 51.68^a ppm
- NO-Heme [1, 16]: 20.54^a ppm
- Nitrosylation [1, 16]: 52.33^a %
- Total Heme [1, 16]: 54.46^a ppm
- NO-Heme [1, 17]: 26.56^a ppm
- Nitrosylation [1, 17]: 55.29^a %
- Total Heme [1, 17]: 123.31 ppm and 123.31^a ppm
- NO-Heme [1, 18]: 22.45 ppm and 22.45^ab ppm
- Nitrosylation [1, 18]: 55.02^a %
- Total Heme [1, 18]: 42.05^a ppm
- NO-Heme [1, 19]: 27.33 ppm and 27.33^a ppm
- Nitrosylation [1, 19]: 34.51^a %
- Total Heme [1, 19]: 85.11^a ppm
- NO-Heme [1, 20]: 25.50^a ppm
- Nitrosylation [1, 20]: 104.27^a %
- Total Heme [1, 20]: 59.73^a ppm
- NO-Heme [1, 21]: 33.37^a ppm
- Nitrosylation [1, 21]: 86.11^a %
- Total Heme [1, 21]: 53.72 ppm and 53.72^ab ppm
- NO-Heme [1, 22]: 27.67^ab ppm
- Nitrosylation [1, 22]: 66.20^a %
- Total Heme [1, 22]: 44.94^a ppm
- pH after 2 hours of sample immersion ([2]; 2 mM L-arginine, post rigor cooked): 5.77^a
- pH after 2 hours of sample immersion ([2]; 2 mM L-arginine, post rigor raw): 5.52^a
- pH after 2 hours of sample immersion ([2]; 2 mM L-arginine, pre-rigor cooked): 6.03^a
- pH after 2 hours of sample immersion ([2]; 2 mM L-arginine, pre-rigor raw): 5.94^a
- pH after 2 hours of sample immersion ([2]; 4 mM L-arginine, post rigor cooked): 5.75^a
- pH after 2 hours of sample immersion ([2]; 4 mM L-arginine, post rigor raw): 5.52^a
- pH after 2 hours of sample immersion ([2]; 4 mM L-arginine, pre-rigor cooked): 6.01^a
- pH after 2 hours of sample immersion ([2]; 4 mM L-arginine, pre-rigor raw): 6.04^a
- pH after 2 hours of sample immersion ([2]; 8 mM L-arginine, post rigor cooked): 5.66^a
- pH after 2 hours of sample immersion ([2]; 8 mM L-arginine, post rigor raw): 5.53^a
- pH after 2 hours of sample immersion ([2]; 8 mM L-arginine, pre-rigor cooked): 5.99^a
- pH after 2 hours of sample immersion ([2]; 8 mM L-arginine, pre-rigor raw): 5.93^a
- pH after 2 hours of sample immersion ([2]; 16 mM L-arginine, post rigor cooked): 5.75^a
- pH after 2 hours of sample immersion ([2]; 16 mM L-arginine, post rigor raw): 5.53^a
- pH after 2 hours of sample immersion ([2]; 16 mM L-arginine, pre-rigor cooked): 6.00^a
- pH after 2 hours of sample immersion ([2]; 16 mM L-arginine, pre-rigor raw): 5.91^a
- pH after 2 hours of sample immersion ([2]; 32 mM L-arginine, post rigor cooked): 5.76^a
- pH after 2 hours of sample immersion ([2]; 32 mM L-arginine, post rigor raw): 5.56^a
- pH after 2 hours of sample immersion ([2]; 32 mM L-arginine, pre-rigor cooked): 5.97^a
- pH after 2 hours of sample immersion ([2]; 32 mM L-arginine, pre-rigor raw): 5.93^a
- sample pH after the immersion phase ([2]; range over pre- and post-rigor, raw and cooked, 0-32 mM): 5.51-6.04
